Drawing on US4024277A, “Phosphoro-aminosulfenyl derivatives of benzofuran carbamates” (priority 1975, dated 1977), this text covers mortality and LD50 for six compounds.

A value given as a limit tells only on which side of the number the result lay.

By LD50 is commonly meant the dose at which mortality reaches 50%.

The test system of one series is plum curculio. Description: Seven-day residual insecticidal activity, plum curculio. Type of series: in vivo, Conotrachelus nenuphar (Herbst). The conditions noted are these: Conotrachelus nenuphar, 48-hour exposure, read-out: % Kill, Plum Curculio. The source says: (§1) b. Seven-Day Residual Insecticidal Activity
(§2) In this test, a candidate insecticide, in solution, is applied to uninfested plants or containers by dipping or spraying. A seven-day holding period is necessary before infestation. A 48-hour exposure period is observed before evaluation of the tests. The insect species used in this type of test are the same as those listed under initial activity.

The subject of series [1] is twospotted spider mite. Description: Ovicidal activity against the twospotted spider mite. Type of series: in vivo, Tetranychus urticae Koch. The conditions noted are these: Tetranychus urticae, eggs, 7 to 10 days, read-out: % Kill (ovicidal). As to the method: d. Ovicidal Activity Against the Twospotted Spider Mite
In this test, Pinto bean seedlings are infested with female twospotted spider mites; about 3-4 hours are allowed for egg deposition. Plants are then dipped in TEPP (tetraethylpyrophosphate-commercial emulsifiable concentrate (EC)) solution containing 936 ppm of active ingredient. TEPP kills motile forms on the leaf and promptly degrades without effecting the egg stage. Two to three hours after TEPP treatment the plants are again dipped -- this time into a candidate insecticide solution. The test plants are maintained for 7 to 10 days. Termination of exposure is determined by the time required to attain complete hatch in the untreated check.

For another series, the system named is Mexican bean beetle. In words: Systemic insecticidal activity (soil/water), Mexican bean beetle. Type of series: in vivo, Epilachna varivestis Mulsant. The conditions noted are these: Epilachna varivestis, 48-hour exposure, read-out: % Kill, Mexican Bean Beetle. On the procedure:
(§3) c. Systemic Insecticidal Acitivity (Soil/Water)
(§4) In this test, a candidate insecticide, in solution, is added to the soil of either uninfested pinto bean seedlings (Phaseolus vulgaris) or uninfested broad bean seedlings (Vicia faba var. Windsor). The plant species used depend on the insect species in the test. Usually, a 72-hour translocation period before infestation is required, followed by a 48-hour exposure period, before evaluation of the tests. The insect species used in the systemic tests are Mexican bean beetle, southern armyworm, pea aphid, and twospotted spider mite.

Series [2] has as its system twospotted spider mite. In words: Systemic insecticidal activity (soil/water), twospotted spider mite. Type of series: in vivo, Tetranychus urticae Koch. The conditions noted are these: Tetranychus urticae, 48-hour exposure, read-out: % Kill, Twospotted Spider Mite. On the procedure: as §3, §4
Series [3] deals with twospotted spider mite. In words: Seven-day residual insecticidal activity, twospotted spider mite. Type of series: in vivo, Tetranychus urticae Koch. The following applies: Tetranychus urticae, 48-hour exposure, read-out: % Kill, Twospotted Spider Mite.
Text: as §1, §2

The next series concerns southern armyworm. In words: Systemic insecticidal activity (soil/water), southern armyworm. Format: in vivo, Spodoptera eridania (Cramer). The conditions noted are these: Spodoptera eridania, 48-hour exposure, read-out: % Kill, Southern Armyworm. As to the method: as §3, §4
Another series relates to pea aphid. Description: Systemic insecticidal activity (soil/water), pea aphid. Format: in vivo, Acyrthosiphon pisum (Harris). The following applies: Acyrthosiphon pisum, 48-hour exposure, read-out: % Kill, Pea Aphid. As to the method: as §3, §4
For the next series, the system named is granary weevil. In words: Initial insecticidal activity, granary weevil. Format: in vivo, Sitophilus granarius (Linnaeus). The following applies: Sitophilus granarius, 48-hour exposure, read-out: % Kill, Granary Weevil. The source says:
a. Initial Insecticidal Activity
In this test, a candidate insecticide, in solution, is applied to either infested or uninfested plants or containers by spraying or dipping. (The preferred test procedure varies with insect species. The dipping method is better than the spraying method, and vice versa, for certain species of insects. Also some species are better adapted to the test by infesting after the chemical treatment rather than before.) Once the tests have been established, a 48-hour exposure period is observed before reading the tests. Insect species included in these tests are Mexican bean beetle (Epilachna varivestis Mulsant), pea aphid [Acyrthosiphon pisum (Harris)], southern armyworm [Spodoptera eridania (Cramer)], twospotted spider mite (Tetranychus urticae Koch), large milkweed bug [Oncopeltus fasciatus (Dallas)], plum curculio [Conotrachelus nenuphar (Herbst)], confused flour beetle (Tribolium confusum Jacquelin duVal) and granary weevil [Sitophilus granarius (Linnaeus)]. Test results are set forth in Table I. A control sample, comprising the solution without the candidate insecticide, is also included.

A short description of series [4]: Mammalian toxicity, 14-day LD50 in rats. The following applies: rat, in vivo, Wistar derived albino rats, method of Miller and Tainter. The text has this:
The compounds of this invention are characterized by advantageous mammalian toxicity values when compared with values for related compounds. This is shown by comparative values obtained with Wistar derived albino rats in 14-day tests. The animals were fed, housed and watered in accordance with standard laboratory procedures. The 14-day LD50 determination was estimated in accord with the method of Miller and Tainter (Experimental Biology and Medicine, 57, pp. 261-264, 1944).

Turning to `CCCOP(=O)(OCCC)N(CCC)SN(C)C(=O)Oc1cccc2c1OC(C)(C)C2` [3(c)], the mortality at 39 ppm in the series on plum curculio is 5%; with Mexican bean beetle, 44%; with twospotted spider mite [2], less than 1%; in the series on twospotted spider mite [3], less than 1%; in the series with southern armyworm, 0%; with pea aphid, 0%. In the series with granary weevil, the mortality at 39 ppm was determined as 70%. The mortality at 156 ppm in the series on plum curculio came to 10%; in the series with twospotted spider mite [1], 0%; in the series with Mexican bean beetle, 94%; in the series with twospotted spider mite [2] it was 5%; with twospotted spider mite [3], 0%; in the series on southern armyworm, 95%. The mortality at 156 ppm in the series with pea aphid stood at 79%; in the series on granary weevil, 90%. In addition, the mortality at 1250 ppm is 95% with plum curculio, 70% with twospotted spider mite [1], 5% in the series on twospotted spider mite [3] and 100% in the series with granary weevil. Moreover, the mortality at 10 ppm was 44% with Mexican bean beetle, less than 1% in the series on twospotted spider mite [2], 0% in the series with southern armyworm and 0% with pea aphid.
For `CCN(SN(C)C(=O)Oc1cccc2c1OC(C)(C)C2)P(=O)(OC)OC` [5(c), 2,3-dihydro-2,2-dimethyl-7-benzofuranyl [(N-dimethoxyphosphinyl) (N-ethyl)aminosulfenyl][methyl]carbamate], the mortality at 39 ppm in the series on plum curculio came to 0%; in the series with Mexican bean beetle it was 100%; in the series on twospotted spider mite [2], 7%; in the series with twospotted spider mite [3] it was 2%; in the series with southern armyworm, 60%; in the series with pea aphid, 0%. Moreover, the mortality at 156 ppm in the series with plum curculio was 0%; with twospotted spider mite [1], 0%; in the series on Mexican bean beetle it was 100%; in the series on twospotted spider mite [2], 24%; in the series on twospotted spider mite [3], 0%; in the series with southern armyworm, 100%. Besides, the mortality at 156 ppm with pea aphid amounted to 100%. Besides, the mortality at 1250 ppm stood at 80% with plum curculio, 38% in the series on twospotted spider mite [1] and 2% in the series on twospotted spider mite [3].
With `CC(C)OP(=O)(OC(C)C)N(C)SN(C)C(=O)Oc1cccc2c1OC(C)(C)C2` [6(c), 2,3-Dihydro-2,2-dimethyl-7-benzofuranyl [(N-diisopropoxyphosphinyl) (N-methyl)aminosulfenyl][methyl]carbamate], the mortality at 39 ppm in the series on plum curculio was determined as 0%; with Mexican bean beetle it was 100%; in the series on twospotted spider mite [2], 4%; in the series with twospotted spider mite [3], 0%; in the series with southern armyworm, 28%; with pea aphid, 100%. The mortality at 156 ppm in the series on plum curculio came out at 0%; with twospotted spider mite [1], 0%; with Mexican bean beetle it was 100%; in the series with twospotted spider mite [2], 19%; with twospotted spider mite [3] it was 1%; in the series with southern armyworm, 100%. For the same compound, the mortality at 156 ppm in the series on pea aphid stood at 100%. In addition, the mortality at 1250 ppm was determined as 100% with plum curculio, 91% in the series on twospotted spider mite [1] and 0% in the series with twospotted spider mite [3].
For the compound `CCCN(SN(C)C(=O)Oc1cccc2c1OC(C)(C)C2)P(=O)(Oc1ccccc1)Oc1ccccc1` [7(c)], the mortality at 39 ppm came out at 5% with plum curculio; 45% with Mexican bean beetle; 4% in the series on twospotted spider mite [2]; 1% in the series with twospotted spider mite [3]; 0% in the series with southern armyworm; 0% in the series on pea aphid. The mortality at 156 ppm with plum curculio came out at 0%; in the series on twospotted spider mite [1], 0%; with Mexican bean beetle it was 100%; in the series with twospotted spider mite [2], 1%; with twospotted spider mite [3], 0%; in the series on southern armyworm, 0%. Besides, the mortality at 156 ppm with pea aphid is 0%. For the same compound, the mortality at 1250 ppm in the series on plum curculio, in the series on twospotted spider mite [1] and in the series on twospotted spider mite [3] was 0% each time.
`CCCOP(=O)(OCCC)N(C)SN(C)C(=O)Oc1cccc2c1OC(C)(C)C2` [2(d), 2,3-dihydro-2,2-dimethyl-7-benzofuranyl [(N-di-n-propoxyphosphinyl) (N-methyl)aminosulfenyl][methyl]carbamate]: the mortality at 39 ppm is 0% in the series with plum curculio; 85% in the series on Mexican bean beetle; 2% with twospotted spider mite [2]; 0% in the series on twospotted spider mite [3]; 94% in the series on southern armyworm; 11% in the series on pea aphid. Besides, the mortality at 39 ppm with granary weevil amounted to 88%. For the same compound, the mortality at 156 ppm in the series with plum curculio was determined as 5%; in the series with twospotted spider mite [1], 2%; in the series with Mexican bean beetle it was 100%; in the series with twospotted spider mite [2] it was 18%; with twospotted spider mite [3], 0%; with southern armyworm it was 100%. Moreover, the mortality at 156 ppm came out at 80% in the series with pea aphid and 100% in the series with granary weevil. For the same compound, the mortality at 1250 ppm with plum curculio worked out at 86%; in the series on twospotted spider mite [1], 80%; in the series on twospotted spider mite [3], 1%; in the series with granary weevil, 100%. Moreover, the mortality at 10 ppm in the series with Mexican bean beetle worked out at 20%; in the series with twospotted spider mite [2], 0%; with southern armyworm, 0%; in the series with pea aphid it was 0%. In addition, the LD50 at 336 h in series [4] was found to be 152 mg/kg.
Regarding `CCOP(=O)(OCC)N(CC)SN(C)C(=O)Oc1cccc2c1OC(C)(C)C2` [8(c), 2,3-Dihydro-2,2-dimethyl-7-benzofuranyl [(N-diethoxyphosphinyl) (N-ethyl)aminosulfenyl][methyl]carbamate], the mortality at 39 ppm in the series with plum curculio was 0%; in the series with Mexican bean beetle, 67%; with twospotted spider mite [2], 4%; in the series with twospotted spider mite [3], 0%; in the series with southern armyworm, 20%; in the series on pea aphid, 0%. In addition, the mortality at 156 ppm with plum curculio was determined as 5%; in the series on twospotted spider mite [1], 0%; with Mexican bean beetle, 100%; with twospotted spider mite [2] it was 13%; in the series with twospotted spider mite [3], 0%; with southern armyworm, 57%. Besides, the mortality at 156 ppm in the series on pea aphid was 100%. The mortality at 1250 ppm in the series with plum curculio was determined as 100%; in the series with twospotted spider mite [1], 26%; with twospotted spider mite [3], 0%.
